The values below come from patent US20240150841A1, “TAP63 REGULATED ONCOGENIC LONG NON-CODING RNAS” (H. LEE MOFFITT CANCER CENTER AND RESEARCH INSTITUTE, INC., priority 2021, published 2024).

For one data set, the system named is CA1D cells. The data set is described as follows: Annexin V assay (apoptosis / cell death) time course in CA1D cells. The format is cell-based, human. On the procedure:
Cells were plated at a density of 1×10^4 cells in 6 replicates in a 96-well plate. Three biological replicates were performed per each assay. To evaluate cell proliferation, the cells were labelled for 3 h with […] EdU (5′-ethynyl-2′-deoxyuridine) and stained using the Click-iT EdU microplate assay (Invitrogen). Apoptosis was monitored by incubating the cells with Annexin V-Alexa Fluor 488 (Essen BioScience) according to the manufacturer's instructions Images were captured and percent of either cell proliferation or apoptosis was quantified using a high-throughput immunofluorescence plate reader and accompanying software (IncuCyte, Essen Bioscience).
To see how effective the administration of an anti-cancer treatment alone or in combination with siRNA targeting TROLL2 and/or TROLL-3 was, CA1D cells were administered treatment and […] of the cells was measured by Annexin V staining. As shown in FIGS. 14A-14F cells with high levels of TROLLs were either limited in response to treatment or resistant.

The test system of a further data set is TROLL-2. Nature of the data set: qRT-PCR for TROLL-2 in triple negative breast cancer cells treated with drugs. The format is cell-based, human. Particulars: for expression of TROLL-2 following treatment: CA1D, BT-20, BT-549, MDA-MB-231, for at least 48 hours following treatment; for expression of TROLL-2 by the end of the 72 hour course: TNBC cell lines. As for the experimental part:
(§1) Total RNA was prepared using TRIzol reagent (Invitrogen)5. For gene expression analysis, complementary DNA was synthesized from 5 μg of total RNA using the SuperScript II First-Strand Synthesis Kit (Invitrogen) according to the manufacturer's protocol followed by qRT-PCR using the TaqMan® Universal PCR Master Mix (Applied Biosystems). qRT-PCR was performed using a QuantStudio 6 flex PCR machine (Applied Biosystems) and each qRT-PCR was performed in triplicate.
(§2) We wanted to examiner the effects anti-cancer treatments on the level of TROLLs overtime.

Another data set relates to TROLL-3. Nature of the data set: qRT-PCR for TROLL-3 in triple negative breast cancer cells treated with drugs. The format is cell-based, human. Particulars: for expression of TROLL-3 following treatment: CA1D, BT-20, BT-549, MDA-MB-231, for at least 48 hours following treatment; for expression of TROLL-3 by the end of the 72 hour course: TNBC cell lines. On the procedure:
as §1, §2

For a further data set, the target named is WDR26 (endogenous) (UniProt Q9H7D7).
Chain of UniProt Q9H7D7 (Q9H7D7 whole entry): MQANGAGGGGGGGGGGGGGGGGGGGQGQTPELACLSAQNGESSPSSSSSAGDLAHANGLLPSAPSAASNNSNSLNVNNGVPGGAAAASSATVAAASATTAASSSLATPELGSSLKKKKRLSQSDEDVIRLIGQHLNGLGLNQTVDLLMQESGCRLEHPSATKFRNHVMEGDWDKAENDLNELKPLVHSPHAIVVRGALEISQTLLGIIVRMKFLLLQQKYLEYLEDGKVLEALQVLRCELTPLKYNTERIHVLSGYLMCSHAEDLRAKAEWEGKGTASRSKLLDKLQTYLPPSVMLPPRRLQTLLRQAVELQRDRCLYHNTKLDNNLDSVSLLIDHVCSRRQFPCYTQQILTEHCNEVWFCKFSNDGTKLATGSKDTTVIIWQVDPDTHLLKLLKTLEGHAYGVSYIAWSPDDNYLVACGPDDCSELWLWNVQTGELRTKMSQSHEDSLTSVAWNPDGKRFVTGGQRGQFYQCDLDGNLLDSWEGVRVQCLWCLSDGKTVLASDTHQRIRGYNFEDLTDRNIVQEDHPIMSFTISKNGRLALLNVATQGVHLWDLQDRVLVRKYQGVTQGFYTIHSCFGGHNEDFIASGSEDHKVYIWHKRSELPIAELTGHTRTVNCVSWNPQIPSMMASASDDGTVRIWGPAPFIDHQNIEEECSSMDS

Where a name gives a salt, the structure may show the parent alone.

Turning to `COc1cccc2c1C(=O)c1c(O)c3c(c(O)c1C2=O)C[C@@](O)(C(=O)CO)C[C@@H]3O[C@H]1C[C@H](N)[C@H](O)[C@H](C)O1` [Adriamycin, Doxorubicin Hydrochloride], in the data set on CA1D cells, the “response to drug in TNBC with high levels of TROLLs (in particular TROLL-2 and TROLL-3)” value is recorded as “limited response”; the “response to drug in TNBC with low levels of TROLLs (in particular TROLL-2 and TROLL-3)” value (from here on “response to drug in TNBC with low levels”) was “sensitivity”. Besides, in the data set with TROLL-2, the “expression of TROLL-2 following treatment” value is on record as “reduced expression” and the “expression of TROLL-2 by the end of the 72 hour course” value is “increased expression”. Besides, in the data set on TROLL-3, the “expression of TROLL-3 following treatment” value was “reduced expression” and the “expression of TROLL-3 by the end of the 72 hour course” value was “increased expression”.

As to `CCCCCOC(=O)Nc1nc(=O)n([C@@H]2O[C@H](C)[C@@H](O)[C@H]2O)cc1F` [capecitabine], in the data set with CA1D cells, the “response to drug in TNBC with high levels of TROLLs (in particular TROLL-2 and TROLL-3)” value is “resistance”; the “response to drug in TNBC with low levels” value is listed as “partial response”. For the same compound, in the data set with TROLL-2, the “expression of TROLL-2 following treatment” value was “reduced expression” and the “expression of TROLL-2 by the end of the 72 hour course” value is reported as “increased expression”. For the same compound, in the data set with TROLL-3, the “expression of TROLL-3 following treatment” value is “reduced expression” and the “expression of TROLL-3 by the end of the 72 hour course” value is “increased expression”.

Regarding `N.N.O=C([O-])C1(C(=O)[O-])CCC1.[Pt+2]` [carboplatin], in the data set with CA1D cells, the “response to drug in TNBC with high levels of TROLLs (in particular TROLL-2 and TROLL-3)” value was “resistance”; the “response to drug in TNBC with low levels” value was “partial response”. For the same compound, in the data set with TROLL-2, the “expression of TROLL-2 following treatment” value is on record as “reduced expression” and the “expression of TROLL-2 by the end of the 72 hour course” value is “increased expression”. Also, in the data set with TROLL-3, the “expression of TROLL-3 following treatment” value is on record as “reduced expression” and the “expression of TROLL-3 by the end of the 72 hour course” value is on record as “increased expression”.

For `O=P1(N(CCCl)CCCl)NCCCO1` (stereo not shown) [cyclophosphamide], in the data set on CA1D cells, the “response to drug in TNBC with high levels of TROLLs (in particular TROLL-2 and TROLL-3)” value is on record as “resistance”; the “response to drug in TNBC with low levels” value is on record as “partial response”. Besides, the “expression of TROLL-2 following treatment” value with TROLL-2 was “reduced expression”. In addition, the “expression of TROLL-3 following treatment” value in the data set on TROLL-3 was “reduced expression”.

Regarding `CC(=O)O[C@@]12CO[C@@H]1C[C@H](O)[C@@]1(C)C(=O)[C@H](O)C3=C(C)[C@@H](OC(=O)[C@H](O)[C@@H](NC(=O)OC(C)(C)C)c4ccccc4)C[C@@](O)([C@@H](OC(=O)c4ccccc4)[C@H]21)C3(C)C` [docetaxel], in the data set with CA1D cells, the “response to drug in TNBC with high levels of TROLLs (in particular TROLL-2 and TROLL-3)” value is on record as “limited response”; the “response to drug in TNBC with low levels” value is recorded as “sensitivity”. The “expression of TROLL-2 following treatment” value with TROLL-2 is listed as “reduced expression”. In addition, the “expression of TROLL-3 following treatment” value in the data set on TROLL-3 is recorded as “reduced expression”.

With `CC(=O)O[C@H]1C(=O)[C@@]2(C)[C@H]([C@H](OC(=O)c3ccccc3)[C@]3(O)C[C@H](OC(=O)[C@H](O)[C@@H](NC(=O)c4ccccc4)c4ccccc4)C(C)=C1C3(C)C)[C@]1(OC(C)=O)CO[C@@H]1C[C@@H]2O` [paclitaxel], in the data set on CA1D cells, the “response to drug in TNBC with high levels of TROLLs (in particular TROLL-2 and TROLL-3)” value was “limited response”; the “response to drug in TNBC with low levels” value is given as “sensitivity”. For the same compound, the “expression of TROLL-2 following treatment” value in the data set with TROLL-2 is recorded as “reduced expression”. Further, in the data set on TROLL-3, the “expression of TROLL-3 following treatment” value is on record as “reduced expression”.

On to AKT (endogenous), for which the “AKT phosphorylation levels (pAKT S473, western blot)” value with WDR26 (endogenous) is “a decrease in AKT phosphorylation levels”.
